Reference: US20220040158A1, “AZD0328 DOSAGE REGIME FOR TREATING COGNITIVE IMPAIRMENT” (ASTRAZENECA AB, priority 2018, published 2022)
pEC50, pIC50, pKi: −log10 of the molar value. Where two headings read alike, the source gives them in different places.

Columns and labels:
[1] = molecular target: T1, α7 nAChR (Homo sapiens, UniProt P36544); conditions: from the literature (Feuerbach et al.); read-out: EC50 as α7 nAChR agonist; cited from earlier work
[2] = geometric mean, cited from earlier work
[3] = test system: Parkinson's disease patients; conditions: cited from earlier work
[4] = single compartment oral dosing PK model for AQW051; design: species or system human; conditions: model parameter estimate
Description: (§1) In more detail, a single compartment oral dosing model with first order absorption as shown in equation (1) for a single dose at time t=0. This population-level model describes the concentration time dynamics of the study cohort given dose D of the drug. Here t is time, C(t) is drug concentration over time, Cmax is maximum achieved concentration at a particular dose, F is bioavailability, D is dose, Vd is volume of distribution, kα is the absorption time constant, and ke is the elimination time constant.
(§2) From the clinical study documentation, for each dose cohort t1/2, tmax, and Cmax could be established. For example, assuming dose-proportionality, half-life t1/2 was estimated for both drugs as the mean over of t1/2 over the different single-dose cohorts, as described in the study publications. We could then determine a working value for the elimination time constant ke in equation (2): […]
(§3) From equation (1), the time of maximum concentration tmax is then available from (3):
(§4) With dose-proportionality, tmax is independent of dose and is again obtained from the mean over the different single-dose cohorts. The absorption time constant kα is established by identifying the kα which results in a zero error e=0:
(§5) This is accomplished by graphing e(kα) over a dense grid in kα, identifying a region around the zero-crossing in which e(.) is monotonic in k0, and then using the interpolation function to estimate the kα with e(kα)=0. With the assumption of dose proportionality, we estimated the mean of Cmax/D over the single-dose cohorts and defined the constant K
(§6) Then from equation (1) and the definition of Cmax,
(§7) For multiple doses at times τi, we then assume linearity and hav
(§8) All equations were implemented directly in R version 3.2.1 (2015 Jun. 18, see https://cran.r-project.org/).
(§9) Dose and dosing regime selection for AZD0328 is targeted to achieve similar levels of α7 nAChR agonism to those reported to deliver clinical improvement in MCI with AQW051 (Trenkwalder et al., ibid).

[5] = AQW051 single-dose cohort pharmacokinetics (Feuerbach et al, phase I); format: in vivo, human
Description: (§10) We thus set out to use summary cohort-level pharmacokinetic (PK) statistics for AQW051 (Feuerbach et al, ibid) and our own unpublished results for AZD0328 (A Phase I, Single-Centre, Randomized, Double-Blind, Placebo-Controlled, Parallel Group Study to Assess the Safety, Tolerability and Pharmacokinetics of AZD0328 in Healthy Volunteers after Oral Single Ascending Doses, Study Code D0190C00005, Ed. 1, 8 Apr. 2008) to establish a safe an efficacious dose range and regime for AZD0328 in Parkinson's disease patients.
as §2, §9

[6] = molecular target: T1, α7 nAChR; test: Ki for efficacy used as threshold in PK figures; conditions: threshold indicated in FIGS. 3-5
[7] = test system: rats; conditions: oral administration (WO2008/115139); cited from earlier work
[8] = single compartment oral dosing PK model for AZD0328; design: species or system human; conditions: model parameter estimate
Description: as §1, §2, §3, §4, §5, §6, §7, §8

[9] = molecular target: T1, α7 nAChR; test: activation of whole cell current at α7 nAChR; format: cell-based
[10] = test system: Rhesus monkeys; test: spatial working memory in Rhesus monkeys; format: in vivo, Rhesus monkey
Description: (§11) In Rhesus monkeys, spatial working memory was enhanced by doses of AZD0328 above 0.001 mg/kg (plasma compound levels of ca 0.2 times the whole cell current IC50).

[11] = test system: other nicotinic receptors and a panel of other targets; test: selectivity by inhibition of radioligand binding, other nicotinic receptors and panel; conditions: relative to α7 nAChR
Description: (§12) AZD0328 is ca 20-fold selective to the α1β1γδ nAChR, and 1000-fold selective to other nicotinic receptors and a panel of other targets (as determined by inhibition of radioligand binding).

[12] = test system: schizophrenia patients; test: clinical evaluation of cognition in schizophrenia patients; format: in vivo, human; conditions: doses up to 0.675 mg
Description: In the case of schizophrenia, it has been widely postulated that direct-acting agonists of various cholinergic receptors including α7 nAChRs, could normalize GABAergic, glutamergic, or dopaminergic function in the dorsolateral prefrontal cortex (dIPFC), dysfunction of which has been consistently associated with cognitive deficits in this condition. […] To date, despite numerous trials, no α7 nAChR agonist has been approved for use in the treatment of schizophrenia.
as §11

[13] = molecular target: α1β1γδ nAChR (Homo sapiens, UniProt P02708+P07510+Q07001); test: selectivity by inhibition of radioligand binding, α1β1γδ nAChR; conditions: relative to α7 nAChR
α1β1γδ nAChR, sequence (P02708 21-457): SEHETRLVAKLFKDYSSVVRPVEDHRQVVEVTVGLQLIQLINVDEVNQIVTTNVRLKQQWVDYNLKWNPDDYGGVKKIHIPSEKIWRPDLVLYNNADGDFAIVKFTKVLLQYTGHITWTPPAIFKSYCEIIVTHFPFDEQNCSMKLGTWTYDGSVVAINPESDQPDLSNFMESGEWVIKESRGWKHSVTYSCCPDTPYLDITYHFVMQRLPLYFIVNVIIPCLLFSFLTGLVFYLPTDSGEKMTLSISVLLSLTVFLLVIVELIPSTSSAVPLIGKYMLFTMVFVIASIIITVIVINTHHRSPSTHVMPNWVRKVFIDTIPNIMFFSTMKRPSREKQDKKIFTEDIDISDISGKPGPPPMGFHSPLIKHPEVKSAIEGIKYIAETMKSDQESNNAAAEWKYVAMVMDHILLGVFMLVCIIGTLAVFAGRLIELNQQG
α1β1γδ nAChR, sequence (P11230 24-501 partner): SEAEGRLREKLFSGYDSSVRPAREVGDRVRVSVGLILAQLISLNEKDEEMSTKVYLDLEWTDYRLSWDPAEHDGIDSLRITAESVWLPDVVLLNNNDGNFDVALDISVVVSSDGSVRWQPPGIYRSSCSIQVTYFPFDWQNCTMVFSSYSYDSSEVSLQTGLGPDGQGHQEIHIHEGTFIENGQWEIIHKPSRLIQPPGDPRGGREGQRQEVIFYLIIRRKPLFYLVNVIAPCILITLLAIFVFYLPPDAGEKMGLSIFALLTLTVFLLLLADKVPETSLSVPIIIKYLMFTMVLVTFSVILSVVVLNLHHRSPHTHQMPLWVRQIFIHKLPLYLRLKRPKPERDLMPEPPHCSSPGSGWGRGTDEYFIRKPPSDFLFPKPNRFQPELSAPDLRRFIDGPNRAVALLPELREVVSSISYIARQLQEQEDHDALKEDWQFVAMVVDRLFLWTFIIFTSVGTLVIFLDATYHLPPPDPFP
α1β1γδ nAChR, sequence (P07510 23-517): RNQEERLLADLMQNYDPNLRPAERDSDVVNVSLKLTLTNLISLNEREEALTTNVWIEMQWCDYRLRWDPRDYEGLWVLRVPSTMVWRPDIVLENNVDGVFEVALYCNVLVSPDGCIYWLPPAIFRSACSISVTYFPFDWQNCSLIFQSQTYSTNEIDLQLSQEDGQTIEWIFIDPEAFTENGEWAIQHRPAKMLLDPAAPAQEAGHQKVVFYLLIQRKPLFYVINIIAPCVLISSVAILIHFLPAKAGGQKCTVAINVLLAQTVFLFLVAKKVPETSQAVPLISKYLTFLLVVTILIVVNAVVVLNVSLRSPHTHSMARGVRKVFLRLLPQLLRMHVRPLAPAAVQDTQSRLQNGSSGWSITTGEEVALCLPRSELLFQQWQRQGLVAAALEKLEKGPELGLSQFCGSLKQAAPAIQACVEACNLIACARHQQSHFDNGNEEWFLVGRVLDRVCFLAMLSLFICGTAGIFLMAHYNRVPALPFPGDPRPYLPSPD
α1β1γδ nAChR, sequence (Q07001 22-517): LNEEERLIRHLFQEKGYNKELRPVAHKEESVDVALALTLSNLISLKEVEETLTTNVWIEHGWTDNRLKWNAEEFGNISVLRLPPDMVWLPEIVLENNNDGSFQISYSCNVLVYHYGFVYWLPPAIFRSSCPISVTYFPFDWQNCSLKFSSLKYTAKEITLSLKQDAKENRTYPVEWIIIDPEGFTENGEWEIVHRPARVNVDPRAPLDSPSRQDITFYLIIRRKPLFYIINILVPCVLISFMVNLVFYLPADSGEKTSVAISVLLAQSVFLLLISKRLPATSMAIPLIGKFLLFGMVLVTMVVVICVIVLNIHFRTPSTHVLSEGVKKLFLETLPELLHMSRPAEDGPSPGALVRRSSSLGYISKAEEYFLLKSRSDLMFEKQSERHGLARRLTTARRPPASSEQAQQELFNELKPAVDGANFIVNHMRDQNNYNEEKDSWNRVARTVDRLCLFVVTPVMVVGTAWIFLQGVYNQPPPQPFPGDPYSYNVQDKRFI
Description: as §12

[14] = molecular target: T1, α7 nAChR; test: α7 nAChR binding (inhibition of radioligand binding)
Description: as §12

[15] = Phase I oral single ascending dose study of AZD0328 in healthy volunteers (safety, tolerability, pharmacokinetics); format: in vivo, human
Description: as §10, §2
Capsules used in the study on which the modelling described above was performed were made by blending AZD0328 tartrate (monotartrate/monohydrate form) with mannitol, povidone and sodium starch glycolate (see Table 5). The blend was the subjected to wet granulation with water as the granulation fluid, then dried before blending with sodium stearyl fumarate. The resultant composition was filled into size 4 hard gelatin capsules (containing gelatin (Ph Eur), titanium dioxide (Ph Eur), and iron oxide black, red and yellow (E172). In embodiments, the compositions for use are capsules according to Table 5.

[16] = healthy volunteers, oral single dose 0.025 mg, cohort geometric mean
[17] = healthy volunteers, oral single dose 0.075 mg, cohort geometric mean
[18] = healthy volunteers, oral single dose 0.23 mg, cohort geometric mean
[19] = healthy volunteers, oral single dose 0.68 mg, cohort geometric mean
[20] = healthy volunteers, oral single dose 1.35 mg, cohort geometric mean
[21] = healthy volunteers, oral single dose 2 mg, cohort geometric mean

T1 sequence (P36544 23-502): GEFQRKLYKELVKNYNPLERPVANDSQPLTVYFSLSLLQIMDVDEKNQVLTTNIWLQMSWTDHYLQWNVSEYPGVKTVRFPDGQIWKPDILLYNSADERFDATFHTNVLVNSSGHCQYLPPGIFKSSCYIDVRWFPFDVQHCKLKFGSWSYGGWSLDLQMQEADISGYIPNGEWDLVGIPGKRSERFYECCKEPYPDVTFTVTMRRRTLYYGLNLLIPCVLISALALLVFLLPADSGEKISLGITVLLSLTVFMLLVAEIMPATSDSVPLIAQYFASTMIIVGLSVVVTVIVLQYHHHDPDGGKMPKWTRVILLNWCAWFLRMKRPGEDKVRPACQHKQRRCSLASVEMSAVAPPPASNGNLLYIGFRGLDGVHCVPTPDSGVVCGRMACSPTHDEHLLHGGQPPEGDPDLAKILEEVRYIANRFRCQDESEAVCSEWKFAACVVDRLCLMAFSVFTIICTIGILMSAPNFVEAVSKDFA

Cc1ccc(-c2ccc(OC3CN4CCC3CC4)cn2)cc1 (stereo not drawn) [AQW051]
pEC50 [1]: 7.40
Cmax ([2]; Cohort 1, single dose 0.5 mg): 0.266 ng/mL
tmax ([2]; Cohort 1, single dose 0.5 mg): 8 h
Cmax ([2]; Cohort 2, single dose 2.5 mg): 1.20 ng/mL
tmax ([2]; Cohort 2, single dose 2.5 mg): 8 h
Cmax ([2]; Cohort 3, single dose 7.5 mg): 4.34 ng/mL
t1/2 ([2]; Cohort 3, single dose 7.5 mg): 22.0 h
tmax ([2]; Cohort 3, single dose 7.5 mg): 7.98 h
Cmax ([2]; Cohort 4, single dose 25 mg): 20.6 ng/mL
t1/2 ([2]; Cohort 4, single dose 25 mg): 22.7 h
tmax ([2]; Cohort 4, single dose 25 mg): 8 h
Cmax ([2]; Cohort 5, single dose 75 mg): 47.0 ng/mL
t1/2 ([2]; Cohort 5, single dose 75 mg): 18.8 h
tmax ([2]; Cohort 5, single dose 75 mg): 4.04 h
Cmax ([2]; Cohort 6, single dose 200 mg): 162 ng/mL
t1/2 ([2]; Cohort 6, single dose 200 mg): 20.0 h
tmax ([2]; Cohort 6, single dose 200 mg): 4.77 h
effect size, improvement in MCI ([3]; PD patients, 10 mg once daily, P=0.073): 0.4
increase in cognitive function ([3]; PD patients, 10 mg): not significantly different from the control group
effect size, improvement in MCI ([3]; PD patients, 50 mg once daily, P=0.024): 0.5
improvement in cognitive function ([3]; PD patients, 50 mg): significantly different from the placebo cohort
cognitive function ([3]; Trenkwalder et al 2016 study): improvements in cognitive function can be realised
K (equation 7 and 8) [4]: 0.88 ng/mL/mg
ka (absorption time constant) [4]: 0.40 h⁻¹
ke (elimination time constant) [4]: 0.033 h⁻¹
Cmax/Dose ([5]; Cohort 1, single dose 0.5 mg): 0.53 ng/mL/mg
Cmax/Dose ([5]; Cohort 2, single dose 2.5 mg): 0.48 ng/mL/mg
Cmax/Dose ([5]; Cohort 3, single dose 7.5 mg): 0.58 ng/mL/mg
Cmax/Dose ([5]; Cohort 4, single dose 25 mg): 0.82 ng/mL/mg
Cmax/Dose ([5]; Cohort 5, single dose 75 mg): 0.63 ng/mL/mg
Cmax/Dose ([5]; Cohort 6, single dose 200 mg): 0.81 ng/mL/mg
Cmax/Dose ([5]; mean over cohorts): 0.64 ng/mL/mg
t1/2 ([5]; mean over cohorts): 20.9 h
tmax ([5]; mean over cohorts): 6.80 h

c1cnc2c(c1)C[C@@]1(CN3CCC1CC3)O2 [AZD0328, (3R)-spiro[1-azabicyclo[2.2.2]octane-3,2′(3′H)-furo[2,3-b]pyridine]
pKi [6]: 8.30
long-term potentiation [7]: significantly improve
operant conditioning [7]: significantly improve
K (equation 7 and 8) [8]: 32.4 nm/mg
ka (absorption time constant) [8]: 1.57 h⁻¹
ke (elimination time constant) [8]: 0.11 h⁻¹
pEC50 ([9]; read-out: activation of whole cell current IC50): 5.54
Emax ([9]; read-out: intrinsic activity compared with acetylcholine): 101%
doses enhancing spatial working memory [10]: above 0.001 mg/kg
selectivity to other nicotinic receptors and a panel of other targets [11]: 1000 fold
improvement in cognition [12]: did not show a statistically significant improvement in cognition
selectivity to the α1β1γδ nAChR [13]: ~20 fold
pIC50 [14]: 8.52
adverse effects ([15]; clinical studies, single dose 0.68 mg): adverse effects, especially, nausea become apparent
prevalence of adverse events ([15]; clinical studies, single doses from 0.25 mg to 0.50 mg): markedly reduced
Cmax [15, 16]: 0.63 nM
t1/2 [15, 16]: 6.25 h
Cmax [15, 17]: 2.08 nM
t1/2 [15, 17]: 5.94 h
Cmax [15, 18]: 6.37 nM
t1/2 [15, 18]: 6.69 h
Cmax [15, 19]: 15 nM
t1/2 [15, 19]: 5.98 h
Cmax [15, 20]: 31 nM
t1/2 [15, 20]: 6.87 h
Cmax [15, 21]: 43.9 nM
tmax [15, 21]: 2.45 h
half-life ([15]; human, plasma, oral, mean over cohorts): 1.81 h
tmax ([15]; human, plasma, oral, mean over cohorts, read-out: tmax): 6.21 h
tmax ([15]; human, plasma, healthy volunteers, oral single dose 0.025 mg, cohort geometric mean, read-out: tmax): 1.44 h
tmax ([15]; human, plasma, healthy volunteers, oral single dose 0.075 mg, cohort geometric mean, read-out: tmax): 1.59 h
tmax ([15]; human, plasma, healthy volunteers, oral single dose 0.23 mg, cohort geometric mean, read-out: tmax): 1.38 h
tmax ([15]; human, plasma, healthy volunteers, oral single dose 0.68 mg, cohort geometric mean, read-out: tmax): 2.08 h
tmax ([15]; human, plasma, healthy volunteers, oral single dose 1.35 mg, cohort geometric mean, read-out: tmax): 2.95 h
Cmax/Dose ([15]; mean over cohorts): 24.6 nM/mg
Cmax/Dose ([15]; oral single dose 0.025 mg): 25.2 nM/mg
Cmax/Dose ([15]; oral single dose 0.075 mg): 27.7 nM/mg
Cmax/Dose ([15]; oral single dose 0.23 mg): 27.7 nM/mg
Cmax/Dose ([15]; oral single dose 0.68 mg): 22.1 nM/mg
Cmax/Dose ([15]; oral single dose 1.35 mg): 22.9 nM/mg
Cmax/Dose ([15]; oral single dose 2 mg): 21.94 nM/mg
